Results on 1 compound are retold here after the supplement of paper PMC12076712.

Broadly, the pIC50 is the IC50 on a negative log10 scale, so that one unit is a factor of ten. Low values mean a large IC50, high ones a small IC50.

Holding throughout (test): pIC50, kinobeads binding competition
Holding throughout (conditions): cell material: Jurkat lysate

The target in assay [1] is MAPKAPK3 (UniProt Q16644).
The target of assay [2] is MAST4 (UniProt O15021).
Assay [3] deals with UniProt P78527.
In assay [4] the target is UniProt Q92918.
Assay [5] addresses T1, UniProt Q9UEE5.
T1 sequence (whole entry): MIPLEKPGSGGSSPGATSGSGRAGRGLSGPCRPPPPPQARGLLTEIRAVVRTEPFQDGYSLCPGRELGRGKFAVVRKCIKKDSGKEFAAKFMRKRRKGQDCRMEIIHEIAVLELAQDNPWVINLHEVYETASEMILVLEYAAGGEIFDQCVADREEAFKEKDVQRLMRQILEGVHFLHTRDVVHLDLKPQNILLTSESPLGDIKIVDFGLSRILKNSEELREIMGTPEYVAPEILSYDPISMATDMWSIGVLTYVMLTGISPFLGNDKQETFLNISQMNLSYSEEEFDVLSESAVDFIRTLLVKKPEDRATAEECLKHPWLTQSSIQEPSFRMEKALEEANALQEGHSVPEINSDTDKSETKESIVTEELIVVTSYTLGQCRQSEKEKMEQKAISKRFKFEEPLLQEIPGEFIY

The target in assay [6] is TESK2 (UniProt Q96S53).
In assay [7] the target is T2, UniProt Q99683.
T2 sequence (whole entry): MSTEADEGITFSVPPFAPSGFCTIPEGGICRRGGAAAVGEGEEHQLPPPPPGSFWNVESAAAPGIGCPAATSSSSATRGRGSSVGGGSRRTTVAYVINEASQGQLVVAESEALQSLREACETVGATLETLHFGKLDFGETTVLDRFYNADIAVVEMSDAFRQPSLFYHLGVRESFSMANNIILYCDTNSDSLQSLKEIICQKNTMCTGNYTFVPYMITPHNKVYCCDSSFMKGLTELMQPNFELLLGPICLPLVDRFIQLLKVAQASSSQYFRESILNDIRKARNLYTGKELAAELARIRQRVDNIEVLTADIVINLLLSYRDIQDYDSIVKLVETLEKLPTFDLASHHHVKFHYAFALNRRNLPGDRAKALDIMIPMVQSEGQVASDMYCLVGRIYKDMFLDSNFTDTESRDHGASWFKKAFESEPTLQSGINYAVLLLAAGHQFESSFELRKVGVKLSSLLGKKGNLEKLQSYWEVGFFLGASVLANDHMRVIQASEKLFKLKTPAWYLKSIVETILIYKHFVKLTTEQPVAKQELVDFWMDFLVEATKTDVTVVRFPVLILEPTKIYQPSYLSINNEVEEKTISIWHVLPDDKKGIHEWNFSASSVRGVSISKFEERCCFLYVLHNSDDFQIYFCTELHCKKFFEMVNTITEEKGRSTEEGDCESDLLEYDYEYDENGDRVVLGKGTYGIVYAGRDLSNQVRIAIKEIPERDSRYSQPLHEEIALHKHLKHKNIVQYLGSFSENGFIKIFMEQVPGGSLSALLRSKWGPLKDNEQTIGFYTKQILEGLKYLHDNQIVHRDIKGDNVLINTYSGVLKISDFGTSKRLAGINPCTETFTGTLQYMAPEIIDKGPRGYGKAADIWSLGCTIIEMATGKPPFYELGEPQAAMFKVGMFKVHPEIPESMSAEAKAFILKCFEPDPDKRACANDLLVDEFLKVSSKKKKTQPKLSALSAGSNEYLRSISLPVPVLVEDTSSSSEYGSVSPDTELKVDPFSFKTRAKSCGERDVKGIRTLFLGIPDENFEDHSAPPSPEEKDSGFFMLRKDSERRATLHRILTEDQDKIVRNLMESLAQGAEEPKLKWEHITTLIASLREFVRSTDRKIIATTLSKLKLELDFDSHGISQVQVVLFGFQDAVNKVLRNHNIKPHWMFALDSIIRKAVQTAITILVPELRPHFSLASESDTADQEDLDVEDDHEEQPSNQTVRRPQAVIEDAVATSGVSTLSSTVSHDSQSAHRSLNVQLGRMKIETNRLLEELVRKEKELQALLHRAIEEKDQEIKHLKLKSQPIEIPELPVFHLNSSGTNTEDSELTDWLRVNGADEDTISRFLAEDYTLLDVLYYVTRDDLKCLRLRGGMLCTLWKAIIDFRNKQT

The target in assay [8] is T3, MERTK (UniProt Q12866).
T3 sequence (whole entry): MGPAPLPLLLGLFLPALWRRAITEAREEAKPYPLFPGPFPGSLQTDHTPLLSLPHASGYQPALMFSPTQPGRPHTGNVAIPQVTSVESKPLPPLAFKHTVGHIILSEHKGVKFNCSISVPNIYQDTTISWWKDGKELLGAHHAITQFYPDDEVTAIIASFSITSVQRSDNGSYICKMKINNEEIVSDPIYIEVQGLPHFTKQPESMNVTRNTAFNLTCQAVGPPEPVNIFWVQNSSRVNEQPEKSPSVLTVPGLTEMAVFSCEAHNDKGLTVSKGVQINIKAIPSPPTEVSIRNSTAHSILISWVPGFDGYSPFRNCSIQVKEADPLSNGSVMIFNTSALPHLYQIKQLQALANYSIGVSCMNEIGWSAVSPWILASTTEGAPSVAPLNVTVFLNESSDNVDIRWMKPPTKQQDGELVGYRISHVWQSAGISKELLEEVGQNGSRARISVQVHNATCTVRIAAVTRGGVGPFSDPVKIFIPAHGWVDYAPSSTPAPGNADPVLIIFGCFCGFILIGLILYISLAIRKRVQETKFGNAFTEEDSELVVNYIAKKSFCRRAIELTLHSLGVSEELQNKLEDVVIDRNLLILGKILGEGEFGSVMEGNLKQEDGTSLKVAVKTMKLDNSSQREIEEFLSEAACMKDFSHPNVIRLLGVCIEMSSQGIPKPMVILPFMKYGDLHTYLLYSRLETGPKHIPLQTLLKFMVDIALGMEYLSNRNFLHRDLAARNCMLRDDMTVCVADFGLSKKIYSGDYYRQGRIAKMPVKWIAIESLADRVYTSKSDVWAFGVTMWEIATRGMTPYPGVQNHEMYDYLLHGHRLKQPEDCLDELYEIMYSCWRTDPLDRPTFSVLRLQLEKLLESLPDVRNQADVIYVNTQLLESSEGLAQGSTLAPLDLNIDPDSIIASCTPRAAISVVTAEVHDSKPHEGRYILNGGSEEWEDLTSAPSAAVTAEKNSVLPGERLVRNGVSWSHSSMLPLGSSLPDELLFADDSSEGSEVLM

Assay [9] concerns the target INSR (UniProt P06213).

Structures are written as SMILES.

MAPKAPK3, sequence (Q16644 whole entry, looked up): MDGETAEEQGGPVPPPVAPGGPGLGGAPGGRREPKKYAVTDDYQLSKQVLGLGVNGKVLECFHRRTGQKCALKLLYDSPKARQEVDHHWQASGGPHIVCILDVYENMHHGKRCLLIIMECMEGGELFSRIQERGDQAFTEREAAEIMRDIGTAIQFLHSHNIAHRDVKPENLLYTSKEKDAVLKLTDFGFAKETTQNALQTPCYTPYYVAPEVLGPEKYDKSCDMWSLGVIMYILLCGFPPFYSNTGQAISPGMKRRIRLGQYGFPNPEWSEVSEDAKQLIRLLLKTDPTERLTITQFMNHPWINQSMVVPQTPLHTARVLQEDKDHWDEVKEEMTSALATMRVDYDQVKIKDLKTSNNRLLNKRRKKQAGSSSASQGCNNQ
UniProt Q92918, sequence (Q92918 whole entry, looked up): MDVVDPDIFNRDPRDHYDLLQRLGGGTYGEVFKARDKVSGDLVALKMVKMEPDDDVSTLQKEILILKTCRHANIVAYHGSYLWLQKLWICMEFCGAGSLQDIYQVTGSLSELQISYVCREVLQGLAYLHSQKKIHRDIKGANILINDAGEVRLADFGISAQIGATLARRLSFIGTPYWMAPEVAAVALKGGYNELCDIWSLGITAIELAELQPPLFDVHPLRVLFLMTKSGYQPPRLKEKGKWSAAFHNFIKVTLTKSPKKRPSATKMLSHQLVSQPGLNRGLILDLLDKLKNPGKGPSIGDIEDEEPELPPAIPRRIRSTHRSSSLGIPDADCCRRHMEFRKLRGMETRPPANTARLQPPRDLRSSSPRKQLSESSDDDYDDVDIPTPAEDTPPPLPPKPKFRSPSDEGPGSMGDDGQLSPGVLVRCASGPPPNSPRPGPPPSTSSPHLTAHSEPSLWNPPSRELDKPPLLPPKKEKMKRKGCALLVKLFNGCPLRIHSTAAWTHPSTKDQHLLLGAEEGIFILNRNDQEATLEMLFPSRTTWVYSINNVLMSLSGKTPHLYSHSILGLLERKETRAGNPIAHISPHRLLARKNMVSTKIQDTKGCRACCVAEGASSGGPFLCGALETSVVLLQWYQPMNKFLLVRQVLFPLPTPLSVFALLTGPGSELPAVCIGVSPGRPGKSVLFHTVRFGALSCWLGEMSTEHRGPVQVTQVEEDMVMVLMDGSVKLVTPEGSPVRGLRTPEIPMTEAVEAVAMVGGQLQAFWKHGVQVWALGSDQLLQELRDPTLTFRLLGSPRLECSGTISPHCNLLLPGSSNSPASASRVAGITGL
TESK2, sequence (Q96S53 whole entry, looked up): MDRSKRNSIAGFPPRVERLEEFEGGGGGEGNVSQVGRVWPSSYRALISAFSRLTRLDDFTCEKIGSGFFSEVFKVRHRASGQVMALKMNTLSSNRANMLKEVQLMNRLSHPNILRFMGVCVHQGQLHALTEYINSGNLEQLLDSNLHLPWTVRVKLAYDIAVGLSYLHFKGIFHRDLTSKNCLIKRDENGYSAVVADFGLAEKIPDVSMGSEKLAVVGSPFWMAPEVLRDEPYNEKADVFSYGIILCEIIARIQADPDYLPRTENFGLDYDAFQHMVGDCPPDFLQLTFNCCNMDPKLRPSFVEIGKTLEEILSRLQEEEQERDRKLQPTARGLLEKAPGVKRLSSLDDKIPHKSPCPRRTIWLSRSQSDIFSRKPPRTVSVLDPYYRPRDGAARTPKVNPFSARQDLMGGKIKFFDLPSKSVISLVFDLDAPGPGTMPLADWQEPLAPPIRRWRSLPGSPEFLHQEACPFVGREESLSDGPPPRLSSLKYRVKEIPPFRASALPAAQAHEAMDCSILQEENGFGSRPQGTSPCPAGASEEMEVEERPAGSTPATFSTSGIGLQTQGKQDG
INSR, sequence (P06213 whole entry): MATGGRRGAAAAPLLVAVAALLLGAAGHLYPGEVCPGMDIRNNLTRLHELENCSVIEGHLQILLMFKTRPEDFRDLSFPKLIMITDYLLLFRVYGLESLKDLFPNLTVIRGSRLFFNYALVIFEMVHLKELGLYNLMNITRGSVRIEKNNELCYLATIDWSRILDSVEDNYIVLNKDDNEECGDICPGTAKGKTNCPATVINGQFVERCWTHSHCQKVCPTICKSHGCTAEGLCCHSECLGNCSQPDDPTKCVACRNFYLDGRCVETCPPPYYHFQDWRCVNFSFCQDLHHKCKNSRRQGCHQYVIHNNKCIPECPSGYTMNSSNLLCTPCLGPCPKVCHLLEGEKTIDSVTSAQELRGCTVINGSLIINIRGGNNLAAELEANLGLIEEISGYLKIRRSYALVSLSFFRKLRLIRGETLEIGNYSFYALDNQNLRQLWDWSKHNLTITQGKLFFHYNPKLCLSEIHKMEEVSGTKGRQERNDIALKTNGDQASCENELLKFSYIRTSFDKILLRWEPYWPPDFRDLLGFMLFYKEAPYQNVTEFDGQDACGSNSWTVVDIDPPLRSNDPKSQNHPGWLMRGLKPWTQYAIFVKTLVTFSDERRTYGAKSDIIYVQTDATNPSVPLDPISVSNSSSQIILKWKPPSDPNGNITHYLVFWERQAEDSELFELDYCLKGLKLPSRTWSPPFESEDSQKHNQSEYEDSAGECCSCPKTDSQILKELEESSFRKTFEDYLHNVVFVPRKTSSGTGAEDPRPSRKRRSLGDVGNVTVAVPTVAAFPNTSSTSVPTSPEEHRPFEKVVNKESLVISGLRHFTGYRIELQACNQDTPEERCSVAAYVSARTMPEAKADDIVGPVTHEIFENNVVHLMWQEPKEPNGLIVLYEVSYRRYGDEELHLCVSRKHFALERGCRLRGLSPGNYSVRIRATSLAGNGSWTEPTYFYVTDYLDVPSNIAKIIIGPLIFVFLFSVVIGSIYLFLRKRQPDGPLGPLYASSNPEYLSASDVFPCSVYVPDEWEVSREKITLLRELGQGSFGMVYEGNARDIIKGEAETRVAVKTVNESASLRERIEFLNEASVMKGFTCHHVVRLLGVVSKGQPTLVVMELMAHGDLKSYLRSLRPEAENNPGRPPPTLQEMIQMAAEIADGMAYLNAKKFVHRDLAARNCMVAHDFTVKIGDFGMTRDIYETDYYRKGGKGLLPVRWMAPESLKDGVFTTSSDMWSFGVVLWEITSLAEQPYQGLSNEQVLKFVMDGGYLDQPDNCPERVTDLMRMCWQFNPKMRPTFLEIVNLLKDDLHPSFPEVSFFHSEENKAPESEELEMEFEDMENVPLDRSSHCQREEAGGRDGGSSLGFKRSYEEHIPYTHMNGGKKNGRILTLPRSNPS

Consider `CCc1cnn2c(NCc3ccc[n+]([O-])c3)cc(N3CCCC[C@H]3CCO)nc12` [dinaciclib], for which the pIC50 in assay [1] was 6.8; in assay [2], less than 4.52; in [3], less than 4.52; in assay [4], less than 4.52; in assay [5], less than 4.52; in [6] it was less than 4.52. Moreover, the pIC50 in assay [7], in assay [8] and in [9] was less than 4.52 throughout.
